Experimental data: ChEMBL document CHEMBL5126573, “Scaffold modifications to the 4-(4,4-dimethylpiperidinyl) 2,6-dimethylpyridinyl class of HIV-1 allosteric integrase inhibitors” (Bioorg Med Chem, 2022)

Experiments:
[1] = tested on: Human immunodeficiency virus 1; test: Antiviral activity against recombinant HIV1 NLRep-Rluc harbouring polymorphic 124N/125A integrase infected in human MT2 cells assessed as inhibition of virus growth in presence of fetal bovine serum by measuring luciferase activity after 5 days by Luciferase Assay; assay type: functional, organism-based; conditions: Human immunodeficiency virus 1, NLRep-Rluc, MT2, 120 h
[2] = tested on: Human immunodeficiency virus 1; test: Antiviral activity against recombinant HIV1 NLRep-Rluc harbouring polymorphic 124T/125T integrase infected in human MT2 cells assessed as inhibition of virus growth in presence of fetal bovine serum by measuring luciferase activity after 5 days by Luciferase Assay; assay type: functional, organism-based; conditions: Human immunodeficiency virus 1, NLRep-Rluc, MT2, 120 h
[3] = Cytotoxicity against human MT2 cells infected with HIV1 NLRep-Rluc harbouring polymorphic 124T/125T integrase; assay type: toxicity, cell-based; conditions: MT2 cells infected with HIV-1 NLRep-Rluc
[4] = tested on: Human immunodeficiency virus 1; test: Antiviral activity against recombinant HIV1 NLRep-Rluc harbouring polymorphic 124A/125A integrase infected in human MT2 cells assessed as inhibition of virus growth in presence of fetal bovine serum by measuring luciferase activity after 5 days by Luciferase Assay; assay type: functional, organism-based; conditions: Human immunodeficiency virus 1, NLRep-Rluc, MT2, 120 h
[5] = Metabolic stability in rat liver microsomes assessed as half life; assay type: ADME, Microsome
[6] = Permeability of the compound at pH 7.4 by PAMPA assay; assay type: ADME; conditions: read-out: permeability
[7] = Metabolic stability in human liver microsomes assessed as half life; assay type: ADME, Microsome
[8] = Metabolic stability in Sprague-Dawley rat assessed as clearance at 1 mg/kg, iv; assay type: ADME, organism-based; conditions: in vivo
[9] = Toxicity in rat H4-II-E cells assessed as fold change in lipid droplet formation at 10 uM incubated for 72 hrs boron-dipyrromethene staining based by high content screening (HCS) fluorescence analysis relative to control; assay type: cell-based
[10] = AUC (0 to infinity) in Sprague-Dawley rat at 5 mg/kg, po; assay type: ADME, organism-based; parameters: time infinity, dose 5 mg/kg, route po; conditions: in vivo
[11] = Toxicity in human Huh-7 cells assessed as fold change in lipid droplet formation at 10 uM incubated for 72 hrs boron-dipyrromethene staining based by high content screening (HCS) fluorescence analysis relative to control; assay type: cell-based; conditions: huh-7, 72 h
[12] = Oral bioavailability in Sprague-Dawley rat at 5 mg/kg; assay type: ADME, organism-based; conditions: in vivo
[13] = Permeability of the compound at pH 5.5 by PAMPA assay; assay type: ADME; conditions: read-out: permeability

Row | Structure (SMILES) | EC50 [1] | EC50 [2] | CC50 [3] | EC50 [4] | half-life [5] | Papp [6] | half-life [7] | clearance [8] | fold change (FC) [9] | AUC(0-inf) [10] | fold change (FC) [11] | bioavailability [12] | Papp [13]
1 | Cc1nc2c(C)c(N3CCC(C)(C)CC3)c([C@H](OC(C)(C)C)C(=O)O)c(C)n2n1 | 540 nM | 207 nM | ≥ 3000 nM | 1210 nM |  |  |  |  |  |  |  |  | 
2 | CCc1cn2c(C)c([C@H](OC(C)(C)C)C(=O)O)c(N3CCC(C)(C)CC3)c(-c3ccc(OCCc4ccc(F)cc4)cc3)c2n1 | 2.4 nM | 1 nM | ≥ 10300 nM | 1.8 nM | > 2 h | 34.3 ×10⁻⁶ cm/s | > 2 h | 57.3 mL/min/kg |  |  |  |  | 
3 | Cc1nc(C)c([C@H](OC(C)(C)C)C(=O)O)c(N2CCC(C)(C)CC2)c1-c1ccc(OCCc2ccc(F)cc2)cc1 |  |  | ≥ 18200 nM |  | > 2 h |  | > 2 h |  | 4 | 14 µM·h | 3.7 |  | 
4 | Cc1nc2c(-c3ccc4c(c3)CCN(c3ncnc5c3oc3ccccc35)C4)c(N3CCC(C)(C)CC3)c([C@H](OC(C)(C)C)C(=O)O)c(C)n2n1 | 4.5 nM | 3.9 nM | ≥ 3000 nM | 5.2 nM |  | 75.2 ×10⁻⁶ cm/s |  | 2.8 mL/min/kg | 3.6 | 36.3 µM·h | 3.9 | 83% | 101 ×10⁻⁶ cm/s
5 | Cc1c([C@H](OC(C)(C)C)C(=O)O)c(N2CCC(C)(C)CC2)c(-c2ccc(OCCc3ccc(F)cc3)cc2)c2nc(C(C)C)cn12 | 3.1 nM | 1.2 nM | ≥ 10300 nM | 2.9 nM |  |  |  |  |  |  |  |  | 
6 | Cc1c([C@H](OC(C)(C)C)C(=O)O)c(N2CCC(C)(C)CC2)c(-c2ccc(OCCc3ccc(F)cc3)cc2)c2nc(C3CC3)cn12 | 11.1 nM | 4.2 nM | ≥ 10300 nM | 10.7 nM |  |  |  |  |  |  |  |  | 
7 | Cc1c([C@H](OC(C)(C)C)C(=O)O)c(N2CCC(C)(C)CC2)c(-c2ccc3c(c2)CCN(c2ncnc4c2oc2ccccc24)C3)c2ncnn12 | 5.1 nM | 2.9 nM | ≥ 3000 nM | 5 nM |  | 47.4 ×10⁻⁶ cm/s |  | 1.5 mL/min/kg |  | 30.7 µM·h |  | 37% | 
8 | Cc1c([C@H](OC(C)(C)C)C(=O)O)c(N2CCC(C)(C)CC2)c(-c2ccc(OCCc3ccc(F)cc3)cc2)c2cccn12 | 32.6 nM | 27.7 nM | ≥ 18200 nM | 38.2 nM |  |  |  |  |  |  |  |  | 
9 | Cc1c([C@H](OC(C)(C)C)C(=O)O)c(N2CCC(C)(C)CC2)c(-c2ccc(OCCc3ccc(F)cc3)cc2)c2ncnn12 | 4 nM | 2.4 nM | ≥ 18200 nM | 4.6 nM | > 2 h | 65.4 ×10⁻⁶ cm/s | > 2 h | 11.9 mL/min/kg | 1.6 | 3.59 µM·h | 2.7 | 28% | 160 ×10⁻⁶ cm/s
10 | Cc1cn2c(C)c([C@H](OC(C)(C)C)C(=O)O)c(N3CCC(C)(C)CC3)c(-c3ccc(OCCc4ccc(F)cc4)cc3)c2n1 | 1.8 nM | 0.8 nM | ≥ 10300 nM | 1.6 nM |  | 43.8 ×10⁻⁶ cm/s | > 2 h | 40.7 mL/min/kg |  | 0.269 µM·h |  | 8% | 38.7 ×10⁻⁶ cm/s
11 | Cc1c([C@H](OC(C)(C)C)C(=O)O)c(N2CCC(C)(C)CC2)c(-c2ccc(OCCc3ccc(F)cc3)cc2)c2nc(C(F)(F)F)cn12 | 12.4 nM | 5.2 nM | ≥ 10300 nM | 10.4 nM |  |  |  |  |  |  |  |  | 
12 | Cc1c([C@H](OC(C)(C)C)C(=O)O)c(N2CCC(C)(C)CC2)c(-c2ccc(OCCc3ccc(F)cc3)cc2)c2cncn12 | 41 nM | 14.6 nM | ≥ 18200 nM | 34.1 nM |  |  |  |  |  |  |  |  | 
13 | Cc1nc2c(-c3ccc4c(c3)CCN(Cc3c(C)cccc3Cl)C4)c(N3CCC(C)(C)CC3)c([C@H](OC(C)(C)C)C(=O)O)c(C)n2n1 | 9 nM | 6 nM | ≥ 3000 nM | 10.1 nM |  | 48.3 ×10⁻⁶ cm/s |  | 13 mL/min/kg |  | 3.21 µM·h |  | 34% | 35.2 ×10⁻⁶ cm/s
14 | Cc1nc2c(-c3ccc(OCCc4ccc(F)cc4)cc3)c(N3CCC(C)(C)CC3)c([C@H](OC(C)(C)C)C(=O)O)c(C)n2n1 | 2.7 nM | 1.3 nM | ≥ 40000 nM | 2.2 nM | > 2 h |  | > 2 h | 20.1 mL/min/kg |  | 2.71 µM·h |  | 39% | 
15 | Cc1c([C@H](OC(C)(C)C)C(=O)O)c(N2CCC(C)(C)CC2)c(-c2ccc(OCCc3ccc(F)cc3)cc2)c2nc(CC(C)C)cn12 | 2.6 nM | 1.2 nM | ≥ 10300 nM | 3.5 nM | > 2 h |  | > 2 h | 44.6 mL/min/kg |  |  |  |  | 
16 | Cc1c([C@H](OC(C)(C)C)C(=O)O)c(N2CCC(C)(C)CC2)c(-c2ccc3c(c2)CCN(c2ncnc4c2oc2ccccc24)C3)c2nccn12 | 4.6 nM | 2.9 nM | ≥ 3000 nM | 4.5 nM |  | 66.3 ×10⁻⁶ cm/s |  | 1 mL/min/kg |  | 12.1 µM·h |  | 9% | 
17 | Cc1c([C@H](OC(C)(C)C)C(=O)O)c(N2CCC(C)(C)CC2)c(-c2ccc3c(c2)CCN(c2ncnc4c2oc2ccccc24)C3)c2cnnn12 | 6.4 nM | 3.8 nM | ≥ 3000 nM | 4 nM |  | 79 ×10⁻⁶ cm/s |  | 1.9 mL/min/kg | 1.3 | 21.7 µM·h | 2.7 | 33% | 
18 | Cc1c([C@H](OC(C)(C)C)C(=O)O)c(N2CCC(C)(C)CC2)c(-c2ccc(OCCc3ccc(F)cc3)cc2)c2ccnn12 | 26.3 nM | 12.9 nM | ≥ 18200 nM | 35.3 nM |  |  |  |  |  |  |  |  | 
19 | Cc1c([C@H](OC(C)(C)C)C(=O)O)c(N2CCC(C)(C)CC2)c(-c2ccc(OCCc3ccc(F)cc3)cc2)c2nncn12 | 13.7 nM | 11.9 nM | ≥ 18200 nM | 15.8 nM |  |  |  |  |  |  |  |  | 
20 | Cc1c([C@H](OC(C)(C)C)C(=O)O)c(N2CCC(C)(C)CC2)c(-c2ccc(OCCc3ccc(F)cc3)cc2)c2cnnn12 | 14.8 nM | 5.8 nM | ≥ 18200 nM | 11.5 nM |  |  |  |  |  |  |  |  | 
21 | Cc1c([C@H](OC(C)(C)C)C(=O)O)c(N2CCC(C)(C)CC2)c(-c2ccc(OCCc3ccc(F)cc3)cc2)c2nccn12 | 1.9 nM | 1.1 nM | ≥ 10300 nM | 1.7 nM | > 2 h | 41 ×10⁻⁶ cm/s | > 2 h | 12.5 mL/min/kg | 1.9 | 1.48 µM·h | 3.3 | 13% | 49.8 ×10⁻⁶ cm/s
